Source: patent US9556179B2 (BRISTOL-MYERS SQUIBB COMPANY, priority 2012, dated 2017)

Experiments:
[1] = target: CK1δ (Homo sapiens (Human), UniProt P48730); test: CK1δ kinase assay (Caliper LABCHIP electrophoretic separation of fluoresceinated peptide substrate and product); format: biochemical; conditions: 200 pM enzyme, 50 μM ATP, 22 hours at room temperature
Summary of the method: (§1)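 Reactions ran 22 hours at room temperature and were stopped with EDTA. Phosphorylated product and unphosphorylated substrate were then separated electrophoretically. Compounds were tested at eleven concentrations, and IC50 values came from non-linear regression.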

[2] = target: CK1ε (Homo sapiens (Human), UniProt P49674); test: CK1ε kinase assay (Caliper LABCHIP electrophoretic separation of fluoresceinated peptide substrate and product); format: biochemical; conditions: 200 pM enzyme, 50 μM ATP, 22 hours at room temperature
Sequence of CK1ε (P49674 whole entry): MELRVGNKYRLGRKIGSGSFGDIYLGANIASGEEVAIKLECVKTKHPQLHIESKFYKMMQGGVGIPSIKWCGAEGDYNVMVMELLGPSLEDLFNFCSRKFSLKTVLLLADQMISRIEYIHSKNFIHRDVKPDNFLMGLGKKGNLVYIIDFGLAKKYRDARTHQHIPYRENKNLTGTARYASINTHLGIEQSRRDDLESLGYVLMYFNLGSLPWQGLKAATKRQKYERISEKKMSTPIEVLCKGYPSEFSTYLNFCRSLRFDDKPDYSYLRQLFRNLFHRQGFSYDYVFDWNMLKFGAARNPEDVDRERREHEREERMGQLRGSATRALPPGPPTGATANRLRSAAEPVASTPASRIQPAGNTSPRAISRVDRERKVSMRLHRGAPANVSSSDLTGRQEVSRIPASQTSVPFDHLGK
Summary of the method: as §1

Sequence of CK1δ (P48730 whole entry): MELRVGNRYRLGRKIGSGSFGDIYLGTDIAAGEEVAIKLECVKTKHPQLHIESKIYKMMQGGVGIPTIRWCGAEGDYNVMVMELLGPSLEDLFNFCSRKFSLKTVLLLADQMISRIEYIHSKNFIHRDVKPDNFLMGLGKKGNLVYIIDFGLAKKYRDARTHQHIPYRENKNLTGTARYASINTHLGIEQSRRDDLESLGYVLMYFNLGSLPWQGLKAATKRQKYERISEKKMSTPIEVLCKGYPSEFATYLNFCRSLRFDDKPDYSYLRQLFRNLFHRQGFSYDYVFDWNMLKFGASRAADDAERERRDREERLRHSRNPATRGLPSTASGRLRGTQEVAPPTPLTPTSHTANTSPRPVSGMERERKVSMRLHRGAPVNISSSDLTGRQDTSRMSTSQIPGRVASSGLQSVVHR

Row | Structure (SMILES) | IC50 [1] [nM] | IC50 [2] [nM]
1 | CN(C)c1cc(C(=O)Nc2cn3nc(-c4c(-c5ccc(F)cc5)nc5ccccn45)ccc3n2)ccn1 [Compound 193, 2-(dimethylamino)-N-(6-(2-(4-fluorophenyl)imidazo[1,2-a]pyridin-3-yl)imidazo[1,2-b]pyridazin-2-yl) isonicotinamide] | 0.111 | 1.28
2 | Nc1cc(C(=O)Nc2cn3nc(-c4c(-c5ccc(F)cc5)nc5ccccn45)ccc3n2)ccn1 [Compound 194, 2-amino-N-(6-(2-(4-fluorophenyl)imidazo[1,2-a]pyridin-3-yl)imidazo[1,2-b]pyridazin-2-yl) isonicotinamide] | 0.715 | 13.8
3 | O=C(Nc1cn2nc(-c3c(-c4ccc(F)cc4)nc4ccccn34)ccc2n1)c1ccnc(O)c1 [Compound 195, N-(6-(2-(4-fluorophenyl)imidazo[1,2-a]pyridin-3-yl)imidazo[1,2-b]pyridazin-2-yl)-2-hydroxyisonicotinamide] | 0.603 | 4.87
4 | O=C(Nc1cn2nc(-c3c(-c4ccc(F)cc4)nc4ccccn34)ccc2n1)c1ccnc(F)c1 [Compound 196, 2-fluoro-N-(6-(2-(4-fluorophenyl)imidazo[1,2-a]pyridin-3-yl)imidazo[1,2-b]pyridazin-2-yl)isonicotinamide] | 3.65 | 5.91
5 | CC(C)(C)c1cc(C(=O)Nc2cn3nc(-c4c(-c5ccc(F)cc5)nc5ccccn45)ccc3n2)ccn1 [Compound 197, 2-(tert-butyl)-N-(6-(2-(4-fluorophenyl)imidazo[1,2-a]pyridin-3-yl)imidazo[1,2-b]pyridazin-2-yl)isonicotinamide] | 2.99 | 8.98
6 | O=C(Nc1cn2nc(-c3c(-c4ccc(F)cc4)nc4ccccn34)ccc2n1)c1ccnc(C(F)(F)F)c1 [Compound 198, N-(6-(2-(4-fluorophenyl)imidazo[1,2-a]pyridin-3-yl)imidazo[1,2-b]pyridazin-2-yl)-2-(trifluoromethyl) isonicotinamide] | 3.88 | 34.6
7 | O=C(Nc1cn2nc(-c3c(-c4ccc(F)cc4)nc4ccccn34)ccc2n1)c1cc(Cl)ncc1C(F)(F)F [Compound 199, 2-chloro-N-(6-(2-(4-fluorophenyl)imidazo[1,2-a]pyridin-3-yl)imidazo[1,2-b]pyridazin-2-yl)-5-(trifluoromethyl) isonicotinamide] | 3.24 | 16.3
8 | O=C(Nc1cn2nc(-c3c(-c4ccc(F)cc4)nc4ccccn34)ccc2n1)c1ccncc1F [Compound 200, 3-fluoro-N-(6-(2-(4-fluorophenyl)imidazo[1,2-a]pyridin-3-yl)imidazo[1,2-b]pyridazin-2-yl) isonicotinamide] | 1.78 | 4.61
9 | O=C(Nc1cn2nc(-c3c(-c4ccc(F)cc4)nc4ccccn34)ccc2n1)c1cncc(Cl)c1 [Compound 201, 5-chloro-N-(6-(2-(4-fluorophenyl)imidazo[1,2-a]pyridin-3-yl)imidazo[1,2-b]pyridazin-2-yl) nicotinamide] | 1.21 | 3.04
10 | CC(C)(C)c1cc(C(=O)Nc2cn3nc(-c4c(-c5ccc(F)cc5)nc5ccccn45)ccc3n2)ncn1 [Compound 202, 6-(tert-butyl)-N-(6-(2-(4-fluorophenyl)imidazo[1,2-a]pyridin-3-yl)imidazo[1,2-b]pyridazin-2-yl)pyrimidine-4-carboxamide] | 9.84 | 28.1
11 | O=C(Nc1cn2nc(-c3c(-c4ccc(F)cc4)nc4ccccn34)ccc2n1)c1ccnc(N2CCOCC2)c1 [Compound 203, N-(6-(2-(4-fluorophenyl)imidazo[1,2-a]pyridin-3-yl)imidazo[1,2-b]pyridazin-2-yl)-2-morpholinoisonicotinamide] | 0.447 | 3.68
12 | O=C(Nc1cn2nc(-c3c(-c4ccc(F)cc4)nc4ccccn34)ccc2n1)c1cccc(-c2cccnc2)c1 [Compound 204, N-(6-(2-(4-fluorophenyl)imidazo[1,2-a]pyridin-3-yl)imidazo[1,2-b]pyridazin-2-yl)-3-(pyridin-3-yl)benzamide] | 2.09 | 1.83
13 | O=C(Nc1cn2nc(-c3c(-c4ccc(F)cc4)nc4ccccn34)ccc2n1)c1cccc(-c2cncnc2)c1 [Compound 205, N-(6-(2-(4-fluorophenyl)imidazo[1,2-a]pyridin-3-yl)imidazo[1,2-b]pyridazin-2-yl)-3-(pyrimidin-5-yl)benzamide] | 2.04 | 4.35
14 | N#Cc1cccc(-c2cccc(C(=O)Nc3cn4nc(-c5c(-c6ccc(F)cc6)nc6ccccn56)ccc4n3)c2)c1 [Compound 207, 3′-cyano-N-(6-(2-(4-fluorophenyl)imidazo[1,2-a]pyridin-3-yl]imidazo[1,2-b]pyridazin-2-yl)-[1,1′-biphenyl]-3-carboxamide] | 2.35 | 18.1
15 | O=C(Nc1cn2nc(-c3c(-c4ccc(F)cc4)nc4ccccn34)ccc2n1)c1ccon1 [Compound 208, N-(6-(2-(4-fluorophenyl)imidazo[1,2-a]pyridin-3-yl)imidazo[1,2-b]pyridazin-2-yl)isoxazole-3-carboxamide] | 1.59 | 17
16 | Cc1nocc1C(=O)Nc1cn2nc(-c3c(-c4ccc(F)cc4)nc4ccccn34)ccc2n1 [Compound 209, N-(6-(2-(4-fluorophenyl)imidazo[1,2-a]pyridin-3-yl)imidazo[1,2-b]pyridazin-2-yl)-3-methylisoxazole-4-carboxamide] | 1.83 | 29.5
17 | Cc1onc(-c2ccccc2)c1C(=O)Nc1cn2nc(-c3c(-c4ccc(F)cc4)nc4ccccn34)ccc2n1 [Compound 210, N-(6-(2-(4-fluorophenyl)imidazo[1,2-a]pyridin-3-yl)imidazo[1,2-b]pyridazin-2-yl)-5-methyl-3-phenylisoxazole-4-carboxamide] | 17.6 | 75.1
18 | O=C(Nc1cn2nc(-c3c(-c4ccc(F)cc4)nc4ccccn34)ccc2n1)c1cccc(-c2nccs2)c1 [Compound 211, N-(6-(2-(4-fluorophenyl)imidazo[1,2-a]pyridin-3-yl)imidazo[1,2-b]pyridazin-2-yl)-3-(thiazol-2-yl)benzamide] | 1.96 | 6.77
19 | O=C(Nc1cn2nc(-c3c(-c4ccc(F)cc4)nc4ccccn34)ccc2n1)c1cncc(-c2cccs2)c1 [Compound 212, N-(6-(2-(4-fluorophenyl)imidazo[1,2-a]pyridin-3-yl)imidazo[1,2-b]pyridazin-2-yl)-5-(thiophen-2-yl) nicotinamide] | 0.64 | 5.98
20 | O=C(Nc1cn2nc(-c3c(-c4ccc(F)cc4)nc4ccccn34)ccc2n1)c1ccnc2[nH]cnc12 [Compound 213, N-(6-(2-(4-fluorophenyl)imidazo[1,2-a]pyridin-3-yl)imidazo[1,2-b]pyridazin-2-yl)-3H-imidazo[4,5-b] pyridine-7-carboxamide] | 1.61 | 17.2
21 | O=C(Cn1ccnc1)Nc1cn2nc(-c3c(-c4ccc(F)cc4)nc4ccccn34)ccc2n1 [Compound 214, N-(6-(2-(4-fluorophenyl)imidazo[1,2-a]pyridin-3-yl)imidazo[1,2-b]pyridazin-2-yl)-2-(1H-imidazol-1-yl) acetamide] | 2.19 | 22.3
22 | Cc1cc(C)n(CCC(=O)Nc2cn3nc(-c4c(-c5ccc(F)cc5)nc5ccccn45)ccc3n2)n1 [Compound 215, 3-(3,5-dimethyl-1H-pyrazol-1-yl)-N-(6-(2-(4-fluorophenyl)imidazo[1,2-a]pyridin-3-yl)imidazo[1,2-b]pyridazin-2-yl)propanamide] | 1.67 | 17.1
23 | CN1CCC(C(=O)Nc2cn3nc(-c4c(-c5ccc(F)cc5)nc5ccccn45)ccc3n2)CC1 [Compound 216, N-(6-(2-(4-fluorophenyl)imidazo[1,2-a]pyridin-3-yl)imidazo[1,2-b]pyridazin-2-yl)-1-methylpiperidine-4-carboxamide] | 2.95 | 26.7
24 | O=C(Nc1cn2nc(-c3c(-c4ccc(F)cc4)nc4ccccn34)ccc2n1)C1CCN(c2ccncc2)CC1 [Compound 217, N-(6-(2-(4-fluorophenyl)imidazo[1,2-a]pyridin-3-yl)imidazo[1,2-b]pyridazin-2-yl)-1-(pyridin-4-yl)piperidine-4-carboxamide] | 0.833 | 12.2
25 | Cc1nc(-c2cccnc2)sc1C(=O)Nc1cn2nc(-c3c(-c4ccc(F)cc4)nc4ccccn34)ccc2n1 [Compound 218, N-(6-(2-(4-fluorophenyl)imidazo[1,2-a]pyridin-3-yl)imidazo[1,2-b]pyridazin-2-yl)-4-methyl-2-(pyridin-3-yl) thiazole-5-carboxamide] | 60.7 | 178
26 | Cc1nc(-c2ccncc2)sc1C(=O)Nc1cn2nc(-c3c(-c4ccc(F)cc4)nc4ccccn34)ccc2n1 [Compound 219, N-(6-(2-(4-fluorophenyl)imidazo[1,2-a]pyridin-3-yl)imidazo[1,2-b]pyridazin-2-yl)-4-methyl-2-(pyridin-4-yl) thiazole-5-carboxamide] | 1.15 | 1.22
27 | O=C(Nc1cn2nc(-c3c(-c4ccc(F)cc4)nc4ccccn34)ccc2n1)C1CCOCC1 [Compound 220, N-(6-(2-(4-fluorophenyl)imidazo[1,2-a]pyridin-3-yl)imidazo[1,2-b]pyridazin-2-yl)tetrahydro-2H-pyran-4-carboxamide] | 0.734 | 11.4
28 | O=C(CN1CCOCC1)Nc1cn2nc(-c3c(-c4ccc(F)cc4)nc4ccccn34)ccc2n1 [Compound 221, N-(6-(2-(4-fluorophenyl)imidazo[1,2-a]pyridin-3-yl)imidazo[1,2-b]pyridazin-2-yl)-2-morpholinoacetamide] | 4.06 | 42.2
29 | O=C(Nc1cn2nc(-c3c(-c4ccc(F)cc4)nc4ccc(N5CCCC5)nn34)ccc2n1)c1ccncc1 [Compound 222, N-(2-(4-fluorophenyl)-6-(pyrrolidin-1-yl)-[3,6′-biimidazo[1,2-b]pyridazin]-2′-yl)isonicotinamide] | 30.7 | 43.6
